Reference: patent US12258423B2, “Stapled and stitched polypeptides and uses thereof” (President and Fellows of Harvard College, priority 2013, dated 2025)

Assay: Circular dichroism (CD) spectroscopy of peptide helicity
Details: unlabeled peptide, 10 mM sodium phosphate pH 7.0, FIG. 11D
Procedure: Circular Dichroism (CD) Spectroscopy: CD spectra (FIGS. 11A-11D) were obtained using unlabeled peptides in 10 mM sodium phosphate pH 7.0 buffer. The raw data has been converted to the concentration-independent unit of molar ellipticity. α-Helices typically show dual minima at approximately 208 nm and 222 nm and a maximum at approximately 192 nm.

## CC(=O)N[C@H](C(=O)N[C@@H](CO)C(=O)N[C@@H](Cc1ccccc1)C(=O)N[C@]12CCN(C1)C(=O)OCCCCOC(=O)N1CC[C@@](C(N)=O)(C1)NC(=O)[C@H](CC(C)C)NC(=O)[C@H](CC(C)C)NC(=O)[C@H](C)NC(=O)[C@H](Cc1[nH]cc3ccccc13)NC(=O)[C@H](Cc1ccc(O)cc1)NC(=O)[C@H](CCC(=O)O)NC2=O)C(C)O (single isomer, unassigned) [Ac-PM2 PyrR/PyrS Alloc-Stapled]
  α-helical character (CD spectrum): a-helical
